Source: ChEMBL document CHEMBL5030555
Activity calls are given as the source filed them. The calls are words filed in the database; no cut-off is given here.

What was measured:
Vero [1] = assay: Inhibition of Escherichia coli Stx2a using african green monkey Vero cell assessed as inhibition of depurination incubated pretreated cells for 1 hr measured after 2 hrs of toxin addition; assay type: cell-based; conditions: time 3.0 hrs
Vero [2] = assay: Protection against Escherichia coli Stx2a-induce d african green monkey Vero cell death assessed as protection of cell viability incubated pretreated cells for 1 hr measured after 2 hrs of toxin addition; assay type: functional, cell-based; conditions: Chlorocebus sabaeus, time 3.0 hrs

Row | Structure (SMILES) | inhibition (Vero [1]) | Activity (Vero [2])
1 | Cc1ccccc1-c1ccc(C(=O)O)s1 | inactive | inactive
2 | Cc1cc(C)c(-c2ccc(C(=O)O)s2)c(C)c1 | inactive | inactive
3 | Cc1cccc(C)c1-c1ccc(C(=O)O)s1 | inactive | inactive
4 | CCc1ccccc1-c1ccc(C(=O)O)s1 | inactive | inactive
